Results reported in US20240124404A1, “COMPOSITION FOR TREATING DISEASES RELATED TO ADVANCED GLYCATION END PRODUCTS COMPRISING INDOLE DERIVATIVE” (METACEN THERAPEUTICS, priority 2021, published 2024).
Like-named read-outs stand apart in the source and are kept apart here.

Tests used:
N2a cells = assay: Protection against MGO-induced cytotoxicity in N2a cell line (MTT); conditions: Mus musculus
Procedure: Specifically, N2a cells were dispensed at 2×10^4 cells/well in a 96 well plate. Each cell line was pre-/post-treated with the compound of the present invention at a concentration of 500 nM or aminoguanidine (AG) at a concentration of 1 mM for 1 hour, and then pre-/post-treated with 500 μM MGO, and cultured for 24 hours. The medium was removed and then treated with 0.5 mg/ml 3-(4,5-dimethylthiazol-2-yl)-2,5-diphenyltetrazolium bromide (MTT) solution for 1 hour, and the reduced formazan was dissolved in 150 μl of DMSO, and the cell viability was measured by a microspectrophotometer at a wavelength of 570 nm.

SH-SY5Y cells = assay: Protection against MGO-induced cytotoxicity in SH-SY5Y cell line (MTT); conditions: Homo sapiens
Procedure: Specifically, SH-SY5Y cells were dispensed at 2×10^4 cells/well in a 96 well plate. Each cell line was pre-/post-treated with the compound of the present invention at a concentration of 500 nM or aminoguanidine (AG) at a concentration of 1 mM for 1 hour, and then pre-/post-treated with 500 μM MGO, and cultured for 24 hours. The medium was removed and then treated with 0.5 mg/ml 3-(4,5-dimethylthiazol-2-yl)-2,5-diphenyltetrazolium bromide (MTT) solution for 1 hour, and the reduced formazan was dissolved in 150 μl of DMSO, and the cell viability was measured by a microspectrophotometer at a wavelength of 570 nm.

[1] = Methylglyoxal (MGO) trapping ability: fluorescence intensity of reaction product; assay type: biochemical; conditions: compound 1.0 mM in MGO+PBS pH 7.4, 37° C., 1 day; ex 355 nm / em 460 nm; 10×10^3 or more = trapping ability
Procedure: Methylglyoxal (MGO) is a main precursor of advanced glycation end products that cause complications due to diabetes mellitus. Successful trapping of methylglyoxal (MGO) can inhibit the production of advanced glycation end products.
A mixture was prepared by adding methylglyoxal (MGO) to phosphate buffered saline (PBS, Cat no. 10010023, pH 7.4). […] The fluorescence intensity of the reaction product was measured at an excitation wavelength of 355 nm and an emission wavelength of 460 nm using a VICTOR™X3 multilabel plate reader.
The higher the fluorescence intensity measured from the reaction product, the higher the ability of the compound to trap methylglyoxal. In addition, in this experimental example, when the fluorescence intensity was 10×10^3 or more, it was determined that the compound had the ability to trap methylglyoxal.

[2] = Methylglyoxal (MGO) trapping ability: free MGO concentration by HPLC; assay type: biochemical; conditions: compound 1:1 with MGO in PBS pH 7.4, 37° C.; for MGO concentration on day 7: MGO + PBS control 436.38; for MGO concentration on day 1: MGO + PBS control 499.53
Procedure: Specifically, a mixture was prepared by adding methylglyoxal (MGO) to phosphate buffered saline (PBS, Cat no. 10010023, pH 7.4). The compound of the present invention was added to the mixture (MGO+PBS) at a concentration of 1:1 with methylglyoxal (MGO) and reacted, and then cultured at 37° C. for 1 day.

[3] = 24 h, read-out: Cell viability, Post-treatment
[4] = read-out: Cell viability, Pre-treatment

SMILES | viability at 1000 µM (N2a cells; [3]) [%] | viability at 1000 µM (N2a cells; [4]) [%] | viability at 1000 µM (SH-SY5Y cells; [3]) [%] | viability at 1000 µM (SH-SY5Y cells; [4]) [%] | Fluorescence intensity on day 1 (×10^3) [1] | MGO concentration on day 7 [2] [µM] | MGO concentration on day 1 [2] [µM]
N=C(N)NN [AG, aminoguanidine] | 102 ± 11.9 | 111 ± 9.32 | 52.01 ± 0.24 | 84.7 ± 1.75 |  |  | 
N[C@H](CO)Cc1c[nH]c2ccc(O)cc12 [Compound 29, (S)-3-(2-amino-3-hydroxypropyl)-1H-indol-5-ol (L-tryptophanol)] |  |  |  |  | 362.50 ± 17.85 ×10^3 | 0 | 18.56
NCC(N)Cc1c[nH]c2ccc(O)cc12 (stereo not shown) [Compound 30, 3-(2,3-diaminopropyl)-1H-indol-5-ol] |  |  |  |  | 156.92 ± 1.22 ×10^3 | 16.43 | 235.58
N#CC(N)Cc1c[nH]c2ccc(O)cc12 (stereo not shown) [Compound 31, 2-amino-3-(5-hydroxy-1H indol-3-yl)propanenitrile] |  |  |  |  | 14.58 ± 0.34 ×10^3 | 0 | 7.30
